Measurements reported in US20050192262A1, “Treatment of tumours” (priority 2001, published 2005).
Read-outs that look alike come from different tables or passages of the source.

Tests used:
[1] = tested on: Dunning R 3327, AT-1, rat prostatic tumour; assay: Tumour growth after s.c. injection near tumour; format: in vivo; details: Animals II; single s.c. injection in the proximity of the tumour
Description: (§1) The animal experiment described above was repeated.
(§2) Group 1 received a single dose of 10 mg 17α-AED sc. near tumour.
(§3) Group 2 received a single dose of 80 mg 17β-AED in the same way.
(§4) Group 3 received a single dose of 25 mg 17α OH-pregnenolone in the same way.
(§5) Group 4 received a single dose of 7.5 mg 5-androstene-3β,7β,17α-triol.
A fifth group served as tumour bearing controls.

PPARγ [2] = target: T1, PPARγ (Mus musculus, UniProt P37238); assay: Ligand-induced coactivator interaction assay (GST-PPARγ / SRC-1); format: biochemical; details: for PPARγ-ligand activity, steroid + liver cytosol + PAPS / PPARγ-ligand activity, native steroid + liver cytosol: second experiment; for PPARγ-ligand activity, steroid + liver cytosol + PAPS: active liver cytosol, sulfate formed in situ; for PPARγ-ligand activity, native steroid + liver cytosol: without PAPS
T1 construct: made in house; host or cells: E. coli strain Y 1090 (GST-PPARγ); TNT Coupled Reticulocyte Lysate System, Promega (SRC-1)
T1 sequence (P37238 whole entry): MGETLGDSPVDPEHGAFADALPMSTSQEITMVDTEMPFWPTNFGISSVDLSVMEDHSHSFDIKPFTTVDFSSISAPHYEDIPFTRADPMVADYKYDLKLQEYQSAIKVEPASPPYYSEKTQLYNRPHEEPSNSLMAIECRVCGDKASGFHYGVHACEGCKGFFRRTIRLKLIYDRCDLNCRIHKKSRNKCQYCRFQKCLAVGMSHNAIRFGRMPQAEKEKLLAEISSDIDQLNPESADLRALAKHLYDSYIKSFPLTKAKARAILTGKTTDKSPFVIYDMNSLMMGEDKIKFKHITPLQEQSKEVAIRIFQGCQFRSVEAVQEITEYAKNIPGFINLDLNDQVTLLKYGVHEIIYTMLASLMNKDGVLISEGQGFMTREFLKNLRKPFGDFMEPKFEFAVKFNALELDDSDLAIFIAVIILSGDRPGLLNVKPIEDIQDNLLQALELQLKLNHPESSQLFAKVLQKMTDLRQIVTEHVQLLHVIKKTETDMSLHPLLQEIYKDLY
T1 sequence (Q15788 whole entry partner): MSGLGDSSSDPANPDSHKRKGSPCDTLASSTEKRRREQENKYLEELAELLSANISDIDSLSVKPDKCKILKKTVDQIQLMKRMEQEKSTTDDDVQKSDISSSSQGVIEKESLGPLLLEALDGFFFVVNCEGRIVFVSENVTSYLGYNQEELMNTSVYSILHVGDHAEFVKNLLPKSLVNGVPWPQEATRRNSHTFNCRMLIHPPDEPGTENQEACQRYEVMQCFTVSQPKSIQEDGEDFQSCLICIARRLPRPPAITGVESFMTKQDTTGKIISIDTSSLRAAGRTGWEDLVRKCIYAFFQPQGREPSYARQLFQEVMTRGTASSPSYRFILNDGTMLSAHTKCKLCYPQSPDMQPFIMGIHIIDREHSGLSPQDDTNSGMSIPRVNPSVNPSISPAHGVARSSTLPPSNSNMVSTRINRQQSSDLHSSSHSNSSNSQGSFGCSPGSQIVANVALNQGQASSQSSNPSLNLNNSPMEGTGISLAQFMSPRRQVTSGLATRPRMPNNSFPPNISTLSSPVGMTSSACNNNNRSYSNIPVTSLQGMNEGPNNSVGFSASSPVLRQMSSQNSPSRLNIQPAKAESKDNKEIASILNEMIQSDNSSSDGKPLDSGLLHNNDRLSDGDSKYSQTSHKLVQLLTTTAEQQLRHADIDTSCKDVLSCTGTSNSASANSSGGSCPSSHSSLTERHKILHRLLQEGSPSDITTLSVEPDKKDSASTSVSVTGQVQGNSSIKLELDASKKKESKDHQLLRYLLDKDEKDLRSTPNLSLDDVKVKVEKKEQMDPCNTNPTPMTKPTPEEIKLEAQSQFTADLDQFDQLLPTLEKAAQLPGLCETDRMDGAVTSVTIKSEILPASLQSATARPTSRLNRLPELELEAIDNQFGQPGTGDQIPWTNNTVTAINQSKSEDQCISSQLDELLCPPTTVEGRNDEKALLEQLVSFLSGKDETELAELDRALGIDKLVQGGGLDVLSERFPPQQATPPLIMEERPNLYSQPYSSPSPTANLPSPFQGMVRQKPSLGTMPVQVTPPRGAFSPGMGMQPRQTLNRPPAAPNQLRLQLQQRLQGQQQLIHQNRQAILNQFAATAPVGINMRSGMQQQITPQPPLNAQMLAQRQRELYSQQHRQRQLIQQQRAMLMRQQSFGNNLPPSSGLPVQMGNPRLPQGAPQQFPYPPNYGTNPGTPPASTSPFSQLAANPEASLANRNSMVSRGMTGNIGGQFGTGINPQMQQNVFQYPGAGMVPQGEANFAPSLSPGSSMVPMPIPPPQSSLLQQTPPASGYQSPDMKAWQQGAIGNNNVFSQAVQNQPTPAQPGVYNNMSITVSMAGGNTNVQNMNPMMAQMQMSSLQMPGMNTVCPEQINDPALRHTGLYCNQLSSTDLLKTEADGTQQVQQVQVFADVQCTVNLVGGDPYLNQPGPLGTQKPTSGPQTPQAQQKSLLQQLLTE
Description: ApcDNA3-SRC-1 construct was used as template to prepare (^35S-methionine)-SRC-1 by in vitro transcription and translation using the TNT® Coupled Reticulocyte Lysate System (Promega).
Ligand-induced interactions between GST-PPARγ and SRC-1: To generate GST-PPARγ fusion protein, mouse PPARγcDNA was inserted into the NcoI-HindIII sites of pGEX-KG, and protein was then expressed in E. coli, strain Y 1090. The bacteria were lysed by sonication in TEDG buffer (50 mM Tris (pH 7.4), 1.5 mM EDTA, 10% glycerol, 0.4 M NaCl, 0.1 mM DTT) containing the following protease inhibitors: 0.5 mM PMSF, 1 mM benzamidine, 10 μg/ml leupeptin, 10 μg/ml antipain and […] aprotinin. The lysates were centrifuged at 100,000×g for 60 min in a SW 41 rotor using a Beckman L8-70 M ultracentrifuge. The fusion protein was immobilized on GSH Sepharose beads (Pharmacia) and then incubated with potential ligands in (FIG. 5) 10 mM Tris (pH7.4), 0.12 M KCl, 8% glycerol, 4 mM DTT, and 0.5% CHAPS (buffer AA) for 30 min at room temperature. Thereafter, (^35S methionine) SRC-1 (ca 0.1 μCi) was added, and the beads were incubated for another hour at 4° C. and then washed extensively with buffer A. SDS sample buffer was added to the beads, and the samples boiled prior to separation on 7.5% SDS-PAGE. Radioactivity was detected by autoradiography.
α- and β-AED were investigated in above assay for PPARγ ligand activity in 10 and 100 μM solutions in ethanol 10%, in distilled water. 10 μL aliquots of α-AED-solution or β-AED-solution were also added to a preparation of a male rat liver cytosolic preparation prepared as follows:
A homogenate of a rat liver, a known source of steroid sulphotransferase activity, was prepared using a food processor. The liver homogenate was protected from serine-proteases by the addition of 2 mmol of PMSF, 1 mmol of EDTA and 10 mmol Tris-HCl buffered to a pH of 7.40. The homogenate was prepared at 4° C. and then centrifuged at 15000 g for 10 minutes, followed by centrifugation at 100000 g for an hour at 4° C. The supernatant was divided into test tubes containing one of the following steroids: 17β-AED or 17α-AED in 5 μM concentration together with 100 μL of liver cytosol. One test tube served as positive control and contained SCR-1.
In a second experiment the following steroids were tested for activity: 17α-AED, 17OH-pregnenolone and 5-androstene-3β,7β,17α-triol with and without 10 μL of […] (PAPS), Sigma Chemicals, corresponding to 0.1 mg of PAPS. One test tube served as a positive control and contained SRC-1 Instead of steroid. One test tube contained liver cytosol where the steroid sulphotransferase was inactivated by heating to 45° C. for 30 minutes. Tubes were stirred at 20° C. for 1 hour and the contents were investigated in the receptor-coactivator assay for ligand activity (FIG. 5).
17α-AED was treated in the method described by Arnostova, Libuse M.; Pouzar, Vladimir; Drasar, Pavel. Inst. Org. Chem. Biochem., Czech. Acad. Sci., Prague, Czech. Synth. Commun. (1990), 20(10), 1521-9, where acetate is used as protection group and pyridine —SO3 complex as the sulfating agent. Deprotection with an excess of 0.8M NaOH in MeOH-water provides the desired hydroxy sulfate, which is investigated, for PPARγ-activity in the ligand-activated-coactivator receptor assay described above.

β-catenin = assay: Western blotting of Dunning AT-1 rat prostate tumours; format: in vivo; details: Animals II; exposure 80 hours in all arms
Description: as §1
Thawed rat tumours from both experiments above were homogenized in ice cold lysis-buffer. (160 mM NaCl, 10 mM HEPES, 2 mM CaCl2, 5% SDS, 0.5% Triton X-100, 100 μg/ml phenyl-metylsulfonyl fluoride, 1 μg/ml leupeptin and 2 μg/ml aprotinin), placed on ice for 15 minutes and following clarification centrifuged for 10 minutes at 13,000 g. Protein content of homogenates were determined by Lowry assay.
Protein in lysates (90 μg) were separated by electrophoresis using 8% SDS-PAGE and separated proteins were transferred onto a nitrocellulose membrane (Amersham) in trans-blot electrophoretic transfer cell (Bio-Rad Laboratories).
After washing in TTBS the blots were reincubated with horseradish peroxidase conjugated secondary antibody (anti-goat antibodies 2020, Santa Cruz) diluted 1:4000 in TTBS containing 3% (w/v) non-fat, dried milk for one hour. Blots were developed using an enhanced chemiluminescence system (ECL, Amersham) and exposed to Hyperfilm ECL (Amersham). Optical density was measured densitometrically.
The blots were striped and rehybridized with antibodies against β-catenin (C-18, sc. 1496) and COX-2 (C-20, sc 1745) antibodies.
In the second animal experiment tumours were investigated for expression of β-catenin, COX-2 and cyclin D1 (A-12, sc. 8396).

VEGF = assay: Immunostaining of tumour sections against VEGF; format: in vivo, rat; details: Animals II
Description: Working dilution 1:100. As negative control antibody a mouse IgG, clone DAK-GO1, kappa, ×931, Dako, was used with a working dilution of 1:50.
as §1, §2, §3, §4, §5

cyclin D1 = assay: Western blotting of Dunning AT-1 rat prostate tumours; format: in vivo; details: Animals II; exposure 80 hours in all arms
Description: as §1, §2, §3, §4, §5
Protein content of homogenates were determined by Lowry assay.

PPARδ = assay: Western blotting cell lines; format: cell-based, human; details: PC-3 and DU-145
Text: (§6) Protein blotting was repeated for DU-145 and PC-3 cell lines, which were also investigated for expression of PPARδ through antibody (H-74, sc 7197).

PPARγ [3] = assay: Western blotting cell lines; format: cell-based, human
Text: as §6

PC-3 = assay: Facscan viability (chlorofluoresceindiacetate / propidiumiodide); format: cell-based, human; details: 200 nM 17α-AED + rat liver cytosol + PAPS, Herceptin 1:150, 72 hours
Description: (§7) Effects of HER-2 and 17α-AED-3β-sulfate in breast and prostate cancer cell lines. Cell cultures of prostate cancer cell lines PC-3 and DU-145 as well as mammary cancer cell lines MCF-7 and SKBR-3 were grown in flasks as previously described in the presence or absence of a 200 nM 17α-AED. Cultures containing 17α-AED were further subdivided and these cultures were grown in the presence or absence of Herceptin®, her-2 antibodies, using a stem solution of 1 mg/ml which was further diluted, making the final concentration 1:150 In the cell suspension.
(§8) Representations of each cell line containing no steroid were also treated with herceptin as above. For each cell line and variation of treatment 3 different culture flasks were used.
(§9) Further, a mixture of 100 μL rat liver cytosol and 20 μL of 3′-phosphoadenosine-5′-phosphosulphate (PAPS), corresponding to approximately 0.16 mg of PAPS was shared between and added to cultures containing 17α-AED.
(§10) Finally, for each cell line three samples were kept as untreated controls.
(§11) To estimate the number of viable cells a solution of chlorofluoresceindiacetate was added to the cultures on the last day of culture. This chemical penetrates freely into cells, but is metabolized in the living cell into a form with green fluorescence unable to leave the cell. As counterstaining, to detect dead cells, propidiumiodide, giving a red fluorescence, was added 15 minutes before analyzing the samples in a Facscan. Time for 10000 cells to pass the detector in the Facscan was estimated in order to detect a possible growth inhibitory effect, not resulting in an increased number of dead cells.

MCF-7 = assay: as above; format: cell-based, human; details: 200 nM 17α-AED + rat liver cytosol + PAPS, Herceptin 1:150, 72 hours
Description: as §7, §8, §9, §10, §11

DU-145 = assay: as above; format: cell-based, human; details: 200 nM 17α-AED + rat liver cytosol + PAPS, Herceptin 1:150, 72 hours
Description: as §7, §8, §9, §10, §11

SKBR-3 = assay: as above; format: cell-based, human; details: 200 nM 17α-AED + rat liver cytosol + PAPS, Herceptin 1:150, 72 hours
Description: as §7, §8, §9, §10, §11

| SMILES | tumour volumes [1] [%] | PPARγ-ligand activity, steroid + liver cytosol + PAPS (PPARγ [2]) | PPARγ-ligand activity, native steroid + liver cytosol (PPARγ [2]) | expression of β-catenin (β-catenin) | staining for VEGF (VEGF) | expression of cyclin D1 (cyclin D1) | expression of PPARδ (PPARδ) | expression of PPARγ (PPARγ [3]; DU-145, 100 nM, repeated experiment) | PPARγ expression (PPARγ [3]; PC-3 cells, 100 nM, repeated experiment) | expression of PPARγ (PPARγ [3]; both cell lines (PC-3, DU-145)) | PPARγ-ligand activity of the 3β-sulfate (PPARγ [2]) | PPARγ-ligand activity of the 3β-sulfate (PPARγ [2]; listed as 5-androstene-17α-ol-3β-sulfate) | dead (PC-3) [%] | viable (PC-3) [%] | dead (MCF-7) [%] | viable (MCF-7) [%] | dead (DU-145) [%] | viable (DU-145) [%] | dead (SKBR-3) [%] | viable (SKBR-3) [%] |
| --- | --- | --- | --- | --- | --- | --- | --- | --- | --- | --- | --- | --- | --- | --- | --- | --- | --- | --- | --- | --- |
| CC(=O)[C@@]1(O)CC[C@H]2[C@@H]3CC=C4C[C@@H](O)CC[C@]4(C)[C@H]3CC[C@@]21C [17αOH-pregnenolone, 17-hydroxy-pregnenolone (17α-OH)] | ~−50 | insignificant responses | insignificant responses | same pattern, but even more marked | almost complete disappearance of staining for VEGF | same pattern, but even more marked | – | – | – | – | – | – | – | – | – | – | – | – | – | – |
| C[C@]12CC[C@H]3[C@@H]([C@@H](O)C=C4C[C@@H](O)CC[C@@]43C)[C@@H]1CC[C@H]2O [5-androstene-3β,7β,17α-triol, 3β,7β,17α-trihydroxy-androst-5-en] | – | insignificant responses | insignificant responses | down-regulation | almost complete disappearance of detectable VEGF In tumours in 2 cases, a modest downregulation in 1 and unchanged appearance in 1 | down-regulation | – | – | – | – | – | – | – | – | – | – | – | – | – | – |
| C[C@]12CC[C@H]3[C@@H](CC=C4C[C@@H](OS(=O)(=O)O)CC[C@@]43C)[C@@H]1CC[C@H]2O [17α-AED-3βsulfate, 5-androstene-17α-ol-3β-sulfate] | – | – | – | – | – | – | no effect | Expression of PPARγ was observed | increased | increased the expression of PPARγ significantly | shows PPARγ-activity | only sample demonstrating PPARγ-ligand activity | 12 | 81 | 15 | 75 | 18 | 70 | 21 | 66 |
